The source of these data is US8513421B2, “Substituted hydroxamic acids and uses thereof” (Millennium Pharmaceuticals, Inc., priority 2010, dated 2013).

The structures appear in SMILES notation.

In the assay the target is T1, purified human HDAC6 (Homo sapiens, UniProt Q9UBN7).
T1 construct: purchased BPS Bioscience 5006
T1 sequence (Q9UBN7 1-1215): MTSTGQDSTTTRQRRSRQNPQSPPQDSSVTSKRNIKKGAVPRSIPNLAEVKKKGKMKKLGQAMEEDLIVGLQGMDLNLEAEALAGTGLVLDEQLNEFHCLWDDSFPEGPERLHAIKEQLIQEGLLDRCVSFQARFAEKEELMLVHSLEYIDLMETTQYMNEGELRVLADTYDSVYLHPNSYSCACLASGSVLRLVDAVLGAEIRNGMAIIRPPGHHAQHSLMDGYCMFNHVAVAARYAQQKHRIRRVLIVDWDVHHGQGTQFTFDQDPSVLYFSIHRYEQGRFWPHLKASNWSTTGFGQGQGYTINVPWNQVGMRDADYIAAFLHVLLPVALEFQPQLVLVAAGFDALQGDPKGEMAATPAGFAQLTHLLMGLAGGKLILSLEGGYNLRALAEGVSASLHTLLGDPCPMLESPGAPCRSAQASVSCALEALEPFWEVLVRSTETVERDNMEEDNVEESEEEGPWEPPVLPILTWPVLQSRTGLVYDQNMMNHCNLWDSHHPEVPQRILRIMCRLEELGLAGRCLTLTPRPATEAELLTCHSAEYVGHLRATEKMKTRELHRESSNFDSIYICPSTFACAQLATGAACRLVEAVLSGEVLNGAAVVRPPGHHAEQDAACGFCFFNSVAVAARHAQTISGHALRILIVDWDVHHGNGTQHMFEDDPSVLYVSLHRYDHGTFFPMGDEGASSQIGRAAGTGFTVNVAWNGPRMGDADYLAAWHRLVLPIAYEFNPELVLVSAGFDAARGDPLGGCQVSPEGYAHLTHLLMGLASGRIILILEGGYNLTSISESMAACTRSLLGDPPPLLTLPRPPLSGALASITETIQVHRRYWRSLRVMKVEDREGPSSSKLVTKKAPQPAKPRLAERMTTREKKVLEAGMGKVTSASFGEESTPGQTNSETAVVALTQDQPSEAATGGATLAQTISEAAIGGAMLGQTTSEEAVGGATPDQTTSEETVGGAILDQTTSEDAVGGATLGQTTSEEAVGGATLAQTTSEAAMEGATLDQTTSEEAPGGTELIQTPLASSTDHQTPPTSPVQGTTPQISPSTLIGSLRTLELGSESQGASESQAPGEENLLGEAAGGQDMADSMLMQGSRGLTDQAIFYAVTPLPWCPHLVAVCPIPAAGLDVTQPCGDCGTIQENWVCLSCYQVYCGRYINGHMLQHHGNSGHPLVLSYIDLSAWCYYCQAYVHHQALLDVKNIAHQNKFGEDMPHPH
In words: HDAC6 Enzyme Assay. To be noted: purified human HDAC6, substrate Ac-Arg-Gly-Lys(Ac)-AMC, 1 hour at 30° C. It counts as biochemical. The method, then: To measure the inhibition of HDAC6 activity, purified human HDAC6 (BPS Bioscience; Cat. No. 5006) is incubated with substrate Ac-Arg-Gly-Lys(Ac)-AMC peptide (Bachem Biosciences; Cat. No. I-1925) for 1 hour at 30° C. in the presence of test compounds or vehicle DMSO control. The reaction is stopped with the HDAC inhibitor trichostatin A (Sigma; Cat. No. T8552) and the amount of Arg-Gly-Lys-AMC generated is quantitated by digestion with trypsin (Sigma; Cat. No. T1426) and subsequent measurement of the amount of AMC released using a fluorescent plate reader (Pherastar; BMG Technologies) set at Ex 340 nm and Em 460 nm. Concentration response curves are generated by calculating the fluorescence increase in test compound-treated samples relative to DMSO-treated controls, and enzyme inhibition (IC50) values are determined from those curves.

With `CN(C)Cc1cc(C(=O)Nc2ccc3ncc(C(=O)NO)cc3c2)cc(C(F)(F)F)c1` [Compound I-1, 6-{[3-[(dimethylamino)methyl]-5-(trifluoromethyl)benzoyl]amino}-N-hydroxyquinoline-3-carboxamide], the IC50 was 0.1 to 0.5 µM.
Under `O=C(NO)c1cnc2ccc(Oc3cccc(Cl)c3)cc2c1` [Compound I-2, 6-(3-chlorophenoxy)-N-hydroxyquinoline-3-carboxamide] stands 0.1 to 0.5 µM; under `COc1ccc2cc(C(=O)NO)cnc2c1` [Compound I-3, N-hydroxy-7-methoxyquinoline-3-carboxamide], more than 0.5 µM.
Take `O=C1CCc2c(Oc3ccc4cc(C(=O)NO)cnc4c3)ccnc2N1` [Compound I-4, N-hydroxy-7-[(7-oxo-5,6,7,8-tetrahydro-1,8-naphthyridin-4-yl)oxy]quinoline-3-carboxamide]: the IC50 is 0.1 to 0.5 µM.
Take `COc1ccc(C(=O)Nc2ccc3cc(C(=O)NO)cnc3c2)cc1` [Compound I-5, N-hydroxy-7-[(4-methoxybenzoyl)amino]quinoline-3-carboxamide]: the IC50 lay in the range of 0.1 to 0.5 µM.
Molecule `O=C(NO)c1cnc2ccc(NC(=O)C3CC3)cc2c1` [Compound I-6, 6-[(cyclopropylcarbonyl)amino]-N-hydroxyquinoline-3-carboxamide] showed an IC50 of less than 0.1 µM.
`O=C(NO)c1cnc2ccc(Nc3ccccc3)cc2c1` [Compound I-7, 6-anilino-N-hydroxyquinoline-3-carboxamide] displayed an IC50 of 0.1 to 0.5 µM.
Molecule `Cn1cc(-c2cc(C(=O)Nc3ccc4ncc(C(=O)NO)cc4c3)cc(C(F)(F)F)c2)cn1` [Compound I-8, N-hydroxy-6-{[3-(1-methyl-1H-pyrazol-4-yl)-5-(trifluoromethyl)benzoyl]amino}quinoline-3-carboxamide] showed an IC50 of less than 0.1 µM.
`O=C(NO)c1cnc2ccc(Nc3ccncc3)cc2c1` [Compound I-9, N-hydroxy-6-(pyridin-4-ylamino)quinoline-3-carboxamide] returned an IC50 of 0.1 to 0.5 µM.
In turn, `CC(C)(C)OC(=O)Nc1ccc2cc(C(=O)NO)cnc2c1` [Compound I-10, tert-butyl {3-[(hydroxyamino)carbonyl]quinolin-7-yl}carbamate] gave a concentration for half-maximal inhibition (IC50) of less than 0.1 µM.
Take `O=C(NO)c1cnc2ccc(-c3ccncc3)cc2c1` [Compound I-11, N-hydroxy-6-pyridin-4-ylquinoline-3-carboxamide]: the IC50 is less than 0.1 µM.
In turn, `O=C(NO)c1cnc2ccc(Oc3ccccc3)cc2c1` [Compound I-12, N-hydroxy-6-phenoxyquinoline-3-carboxamide] gave a half-inhibitory concentration (IC50) of 0.1 to 0.5 µM.
With `O=C(NO)c1cnc2ccc(NS(=O)(=O)c3ccccc3)cc2c1` [Compound I-13, N-hydroxy-6-[(phenylsulfonyl)amino]quinoline-3-carboxamide], the IC50 is less than 0.1 µM.
With `O=C(Nc1ccccc1)Nc1ccc2ncc(C(=O)NO)cc2c1` [Compound I-14, 6-[(anilinocarbonyl)amino]-N-hydroxyquinoline-3-carboxamide], the IC50 is less than 0.1 µM.
Next, `O=C(NO)c1cnc2cc(Oc3cccc(Cl)c3)ccc2c1` [Compound I-15, 7-(3-chlorophenoxy)-N-hydroxyquinoline-3-carboxamide]: 0.1 to 0.5 µM; `O=C(NO)c1cnc2cc(Oc3ccc(Cl)cc3)ccc2c1` [Compound I-16, 7-(4-chlorophenoxy)-N-hydroxyquinoline-3-carboxamide]: 0.1 to 0.5 µM; `O=C(NO)c1cnc2ccc(NCc3ccccc3)cc2c1` [Compound I-17, 6-(benzylamino)-N-hydroxyquinoline-3-carboxamide]: less than 0.1 µM.
Under `O=C(NO)c1cnc2ccc(CCc3ccccc3)cc2c1` [Compound I-18, N-hydroxy-6-(2-phenylethyl)quinoline-3-carboxamide] stands less than 0.1 µM.
In turn, `COc1ccc2ncc(C(=O)NO)cc2c1` [Compound I-19, N-hydroxy-6-methoxyquinoline-3-carboxamide] came in with an IC50 of more than 0.5 µM.
The molecule `O=C(NO)c1cnc2ccc(NC(=O)c3ccccc3)cc2c1` [Compound I-20, 6-(benzoylamino)-N-hydroxyquinoline-3-carboxamide] yielded an IC50 of less than 0.1 µM.
With `CC(C)(C)OC(=O)Nc1ccc2ncc(C(=O)NO)cc2c1` [Compound I-21, tert-butyl {3-[(hydroxyamino)carbonyl]quinolin-6-yl}carbamate], the IC50 is less than 0.1 µM.
Regarding `COc1ccc(C(=O)Nc2ccc3ncc(C(=O)NO)cc3c2)cc1` [Compound I-22, N-hydroxy-6-[(4-methoxybenzoyl)amino]quinoline-3-carboxamide], the IC50 was less than 0.1 µM.
As to `O=C(NO)c1cnc2cc(Oc3ccnc(NC(=O)C4CC4)c3)ccc2c1` [Compound I-23, 7-({2-[(cyclopropylcarbonyl)amino]pyridin-4-yl}oxy)-N-hydroxyquinoline-3-carboxamide], the IC50 is 0.1 to 0.5 µM.
The molecule `O=C(NO)c1cnc2cc(Nc3ccccc3)ccc2c1` [Compound I-24, 7-anilino-N-hydroxyquinoline-3-carboxamide] registered an IC50 of less than 0.1 µM.
Take `O=C(NO)c1cnc2cc(-c3ccc(Cl)cc3)ccc2c1` [Compound I-25, 7-(4-chlorophenyl)-N-hydroxyquinoline-3-carboxamide]: the 50% inhibitory concentration (IC50) was in the range of 0.1 to 0.5 µM.
`O=C1CCc2c(Oc3ccc4ncc(C(=O)NO)cc4c3)ccnc2N1` [Compound I-26, N-hydroxy-6-[(7-oxo-5,6,7,8-tetrahydro-1,8-naphthyridin-4-yl)oxy]quinoline-3-carboxamide]: the IC50 is 0.1 to 0.5 µM.
In the case of `O=C(NO)c1cnc2ccc(-c3ccc(Cl)cc3)cc2c1` [Compound I-27, 6-(4-chlorophenyl)-N-hydroxyquinoline-3-carboxamide], the concentration for half-maximal inhibition (IC50) was 0.1 to 0.5 µM.
Next, `O=C(NO)c1cnc2cc(Nc3ccncc3)ccc2c1` [Compound I-28, N-hydroxy-7-(pyridin-4-ylamino)quinoline-3-carboxamide]: less than 0.1 µM; `O=C(NO)c1cnc2ccc(Oc3ccc(Cl)cc3)cc2c1` [Compound I-29, 6-(4-chlorophenoxy)-N-hydroxyquinoline-3-carboxamide]: 0.1 to 0.5 µM.
The molecule `O=C(NO)c1cnc2ccc(Nc3ccc(Cl)cc3)cc2c1` [Compound I-30, 6-[(4-chlorophenyl)amino]-N-hydroxyquinoline-3-carboxamide] displayed an IC50 of less than 0.1 µM.
In turn, `O=C(NO)c1cnc2ccc(Oc3ccnc(NC(=O)C4CC4)c3)cc2c1` [Compound I-31, 6-({2-[(cyclopropylcarbonyl)amino]pyridin-4-yl}oxy)-N-hydroxyquinoline-3-carboxamide] had an IC50 of less than 0.1 µM.
As to `O=C(NO)c1cnc2ccc(Oc3ccncc3)cc2c1` [Compound I-32, N-hydroxy-6-(pyridin-4-yloxy)quinoline-3-carboxamide], the IC50 fell in the range of 0.1 to 0.5 µM.
Under `O=C(NO)c1cnc2cc(-c3ccncc3)ccc2c1` [Compound I-33, N-hydroxy-7-pyridin-4-ylquinoline-3-carboxamide] stands 0.1 to 0.5 µM.
